According to patent US20070111265A1, “Ligands for mineralocorticoid receptor (MR) and methods for screening for or designing MR ligands” (Van Andel Research Institute, priority 2005, published 2007):
Positions count from the first letter of the chain named. “Also recorded” adds a separate entry of the source.

Columns and labels:
MR L848Q = target: T1, MR L848Q (Homo sapiens, UniProt P08235, L848Q); experiment: MMTV luciferase reporter assay in Cos-7 cells; type: cell-based
T1 construct: (S843P and L848Q) within the context of the full length wild type receptor; expressed in transfected cells; host or cells: Cos-7
T1 sequence (P08235 1-984 L848Q): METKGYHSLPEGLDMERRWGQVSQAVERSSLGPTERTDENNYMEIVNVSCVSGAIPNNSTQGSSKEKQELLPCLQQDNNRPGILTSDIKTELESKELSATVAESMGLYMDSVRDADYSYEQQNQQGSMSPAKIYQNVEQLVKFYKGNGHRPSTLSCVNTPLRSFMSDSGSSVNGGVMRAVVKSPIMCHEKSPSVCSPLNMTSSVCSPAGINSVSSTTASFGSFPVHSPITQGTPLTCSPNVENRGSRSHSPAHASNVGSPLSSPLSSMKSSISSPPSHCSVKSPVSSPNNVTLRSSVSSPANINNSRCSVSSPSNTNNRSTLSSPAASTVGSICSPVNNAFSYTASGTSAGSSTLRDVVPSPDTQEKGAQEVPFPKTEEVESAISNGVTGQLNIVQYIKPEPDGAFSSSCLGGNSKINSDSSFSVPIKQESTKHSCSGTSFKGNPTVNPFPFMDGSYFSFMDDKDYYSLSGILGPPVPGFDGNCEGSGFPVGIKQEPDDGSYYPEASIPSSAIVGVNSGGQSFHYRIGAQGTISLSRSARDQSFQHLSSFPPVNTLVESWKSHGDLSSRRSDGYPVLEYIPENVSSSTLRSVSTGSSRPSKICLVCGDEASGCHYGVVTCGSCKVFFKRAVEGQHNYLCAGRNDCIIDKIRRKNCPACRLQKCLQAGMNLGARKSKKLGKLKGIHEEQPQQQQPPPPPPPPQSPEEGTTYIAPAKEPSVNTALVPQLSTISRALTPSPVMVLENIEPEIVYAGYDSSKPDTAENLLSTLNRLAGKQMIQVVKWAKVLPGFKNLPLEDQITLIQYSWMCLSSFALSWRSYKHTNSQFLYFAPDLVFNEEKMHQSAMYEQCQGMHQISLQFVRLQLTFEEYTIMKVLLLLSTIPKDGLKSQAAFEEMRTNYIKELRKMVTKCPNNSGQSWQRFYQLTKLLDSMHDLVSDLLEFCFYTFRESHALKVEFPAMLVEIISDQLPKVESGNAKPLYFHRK
Experimental: (§1) Cos-7 cells were maintained in DMEM containing 10% fetal bovine serum (FBS) and were transiently transfected using Lipofectamine 2000 (Invitrogen). […] Cells were transfected in Opti-MEM with 400 ng of MMTV-Luc reporter plasmid and 400 ng of receptor expression vector (pRS vector) encoding full-length GR and MR respectively (ATCC). […] Luciferase data were normalized to Renilla activity as an internal control.
(§2) To validate the role of the key MR pocket residues in hormone recognition, the inventors mutated S843 and L848 to the corresponding GR residues (S843P and L848Q) within the context of the full length wild type receptor. […] We also performed reverse mutations in the full length GR receptor (P637S and Q642L) and tested them in the same MMTV reporter.

MR L848Q/S843P = target: T2, MR L848Q/S843P (Homo sapiens, UniProt P08235, L848Q/S843P); experiment: MMTV luciferase reporter assay in Cos-7 cells; type: cell-based; details: double mutation
T2 construct: (S843P and L848Q) within the context of the full length wild type receptor; expressed in transfected cells; host or cells: Cos-7
T2 sequence (P08235 1-984 S843P/L848Q): T1 sequence (P08235 1-984 L848Q) with S843P
Experimental: as §1, §2

EC50 (MR L848Q; Cos-7, MMTV-Luc, read-out: EC50, activation of MR L848Q)	decrease of potency by L848Q mutation (MR L848Q; versus wild type MR)	SMILES	activation of MR L848Q/S843P (MR L848Q/S843P)	activation of MR L848Q (MR L848Q; versus wild type MR)
~1 nM	at least 10 fold	C[C@]12C[C@H](O)[C@H]3[C@@H](CCC4=CC(=O)CC[C@@]43C)[C@@H]1CC[C@@H]2C(=O)CO [corticosterone]	totally abolished; also recorded: severely affects activation	
		C[C@]12CCC(=O)C=C1CC[C@@H]1[C@@H]2[C@@H](O)C[C@@]2(C)[C@H]1CC[C@]2(O)C(=O)CO [cortisol]	totally abolished; also recorded: severely affects activation	not affected
